What follows are compounds tested on PC-3 (assay: Cytotoxicity against human PC3 cells assessed as reduction in cell viability by MTT assay).
`CC12CCC3C1C(c1c(CCc4ccccc4)cc(O)cc1O2)C3(C)C` (centres undefined) was tested, and the IC50 was 19.6 µM.
In the case of `C=C(C)C1CCC2(C)Oc3cc(O)cc(CCc4ccccc4)c3C1C2O` (racemic), the IC50 is reported as > 40 µM.
With `CC12CCc3cc(CCc4ccccc4)cc(O)c3C1C2` (racemic) the IC50 was > 40 µM.

The compounds below were run on MCF7 (assay: Cytotoxicity against human MCF7 cells assessed as reduction in cell viability by MTT assay).
`CC12CCC3C1C(c1c(CCc4ccccc4)cc(O)cc1O2)C3(C)C` (centres undefined) was tested, and the IC50 was 14 µM.
In the case of `C=C(C)C1CCC2(C)Oc3cc(O)cc(CCc4ccccc4)c3C1C2O` (racemic), the IC50 is reported as 38.2 µM.
With `CC12CCc3cc(CCc4ccccc4)cc(O)c3C1C2` (racemic) the IC50 was 24.7 µM.

The compounds below were run on SMMC-7721 (assay: Cytotoxicity against human SMMC7721 cells assessed as reduction in cell viability by MTT assay).
Compound `CC12CCC3C1C(c1c(CCc4ccccc4)cc(O)cc1O2)C3(C)C` (centres undefined) has an IC50 of 14.5 µM.
`C=C(C)C1CCC2(C)Oc3cc(O)cc(CCc4ccccc4)c3C1C2O` (racemic) was tested, and the IC50 was > 40 µM.
In the case of `CC12CCc3cc(CCc4ccccc4)cc(O)c3C1C2` (racemic), the IC50 is reported as 34.2 µM.
